This is an account of results in patent US7368126B2, “Controlled release depot formulations” (priority 2002, dated 2008).

Counter-ions that a name gives are not always drawn.

A short description of one data set: Solubility in water. The class given is physicochemical. The note with it: DI water.
For data set [1] the following is noted: cited from earlier work.

With `CCCCN1CCCCC1C(=O)Nc1c(C)cccc1C` (centres unmarked) [Bupivacaine hydrochloride], the “concentration in deionized water at saturation” value in “Solubility in water” was determined as 40000 µg/mL.
In the case of `CC(=O)OCC(COC(C)=O)OC(C)=O` [triacetin], the “reported solubility in water” value in data set [1] was 7.17 grams in 100 ml of water.
